From patent US12005068B2, “Formulation including doxycycline hyclate and method for administering the same” (priority 2017, dated 2024) come the findings set out here.

Common to all, as to assay type: in vivo
Experiment [1] has as its system chemotherapy induced peripheral neuropathy. The experiment in a line: Example 1: human subject with chemotherapy induced peripheral neuropathy, Treatment-Induced Neuropathy Assessment Scale and reported symptoms. The following applies: patient history before the disclosed treatment. An excerpt: A patient complained of a tingling and burning sensation in their hands and feet that began shortly after they commenced chemotherapy. The patient had been previously diagnosed with primary peritoneal cervical cancer. While it was recommended that the patient undergo chemotherapy treatment for 18 weeks, the patient was unable to tolerate the side effects of the treatment after 11 weeks and ceased the treatment sessions. […] The patient experienced the same side effects again and sought help to alleviate their pain.
Upon physical examination by a practicing physician their gait was abnormal. Some of their symptoms included: • (a) The patient had poor coordination. In particular, when the patient would stop looking at their feet, they would lose all sense of proprioception (i.e., their sense of the relative position of the body and strength of effort being employed in movement) was lost. The patient thus used a cane as they had trouble with stability. • (b) The patient's sense of touch was poor. For example, the patient could not distinguish different textures as everything felt like silk to them. • (c) The patient's sense of temperature was also poor. […] • (d) There was an altered temperature sensation. They were hyper sensitized to slight changes in temperature. […] They could not write, hold a phone, pick up change, buckle themself in a seat, or dress themself. In the absence of a stimulus, the patient felt the tingling, burning sensations in their hands and feet. • (e) The patient's sensations would be exacerbated upon the introduction of a non-noxious stimulus.
Based on the above, the patient was diagnosed with chemotherapy induced peripheral neuropathy. […] Some of the attempted medications were PERCOSET, GABAPENTIN, TYLENOL, ADVIL, LIDOCAINE, and CAPSAICIN. Numerous other over-the-counter medications were tried. Other attempted treatments included acupuncture.
In an embodiment of the presently disclosed treatment, a formulation of topical doxycycline hyclate suspension at a concentration of 400 mg/g. The prescribed administration included applying the formulation to the patient's hands and feet 2-3 times daily as needed for the pain. Each dose was 2 ml per foot, per hand, and per leg. Over the course of at least 18 months, the patient used the formulation every day during the remainder of the patient's second regiment of chemotherapy. […] In particular, immediately after applying the topical doxycycline for the very first time, the patient found relief in the tingling, burning feeling in the hands and feet. […] They were able to pick up change.
Quantitatively, data was collected for at least 7 months on a “Treatment-Induced Neuropathy Assessment Scale” as shown in Table 1 below. The scale was proven in the scientific literature to be an effective tool to quantify change in symptoms presented by patients with peripheral neuropathy. The patient needed to assess their pain from a scale of 0 (non-existent) to 10 (unbearable pain). Throughout all the categories, the patient's pain went down. In some categories the pain was diminished altogether.

Experiment [2] concerns multiple sclerosis. The experiment in a line: Example 5: human subject with multiple sclerosis, leg pain triggered by AVONEX injection. The following applies: patient history. An excerpt:
The following in vivo study of a human subject diagnosed with multiple sclerosis.
A patient presented with excruciating pain in their quadriceps that extended down to their calves. The pain was triggered by the weekly injection of AVONEX (interferon beta-1a) the patient was taking in order to manage their multiple sclerosis. They could not sleep due to the pain.
The patient then began a new treatment course to alleviate the pain. This treatment is a novel formulation of topical doxycycline hyclate suspension at a concentration of 400 mg/g. Each dose was 4 ml per leg and 2 ml per arm/hands. They applied it to the affected areas when they were feeling the pain. They also applied it at work when they would get pains from handling complex machines such as nail guns.

In experiment [3] the test system is osteoarthritis. The experiment in a line: Example 6: human subject with osteoarthritis in both knees. The following applies: patient history; side effects put them in a worse state. Here is the method:
The following in vivo study of a human subject diagnosed with osteoarthritis.
A patient presented with osteoarthritis in both knees due to a previous trauma years ago in their life. Their knees are in a constant state of pain and inflammation. They also have arthritis in the toe joints and shoulder.
The patient then began a new treatment course to alleviate the pain. This treatment is a novel formulation of topical doxycycline hyclate suspension at a concentration of 400 mg/g. Each dose was 2 ml per knee. They applied it to the affected areas when they were feeling the pain. By the next day the patient feels minimal pain. They apply 1.5 ml of the topical doxycycline suspension daily for a week at night. […] undergoes this treatment once every 4-6 months.

For experiment [4], the system named is idiopathic neuropathy. The experiment in a line: Example 7: human subject with idiopathic neuropathy. The following applies: patient statement. Here is the method: The following in vivo study of a human subject diagnosed with idiopathic neuropathy.
A patient presented with idiopathic ice-cold burning sensations on the lateral surface area of the right shin/calf. The pain began 6 years ago and has stayed constant.
The patient then began a new treatment course to alleviate the pain. This treatment is the presently disclosed novel formulation of topical doxycycline hyclate suspension at a concentration of 400 mg/g. Each dose was 4m1 to the affected right shin. They applied it topically to the affected areas when they were feeling the pain. They began applying it only once a day for 2 weeks before bed.

The subject of experiment [5] is osteoarthritis of the left knee. The experiment is described as follows: Example 2: human subject with osteoarthritis of the left knee. The following applies: patient history; once relieved pain for 3 months. From the text:
The following in vivo study of a human subject diagnosed with osteoarthritis of the left knee.
A patient presented with complaints of left knee pain. The patient had been previously diagnosed with progressive osteoarthritis of the left knee. They had undergone two knee surgeries, but the pain came back within a few months. […] Their specialist said that the they were too young and too overweight for a full knee replacement surgery so they must rely on narcotic pain medications and hydrocortisone shots until they are a good candidate for the replacement surgery.
The patient then began the currently disclosed treatment course to alleviate the pain from their osteoarthritis. As already discussed, the currently disclosed treatment is a topical doxycycline hyclate suspension at a concentration of 400 mg/g. They applied it to the knee twice a day. Each dose was approximately 4 ml per knee spread topically over the knee. Preferably, an application covers the affected area with a thin layer of the suspension. One application was before bedtime and the other was in the morning before going to work. The patient has been using it every day for the past month.

Turning to `CC(=O)Nc1ccc(O)cc1` [TYLENOL, acetaminophen], the “effect of previously attempted medications on the patient's symptoms” value (“effect … on the patient's symptoms” below) in experiment [1] is recorded as “failed to address the patient's symptoms”. The “effect of previously taken medications on pain” value in experiment [2] is recorded as “not as effective as they hoped”. Also, the “effect of previously tried medications on pain” value in experiment [3] is on record as “did not help manage the pain”.

On to `CC(C)Cc1ccc(C(C)C(=O)O)cc1` (stereo not shown) [ADVIL, ibuprofen], for which the “effect … on the patient's symptoms” value in experiment [1] is “failed to address the patient's symptoms”.

Take `NCC1(CC(=O)O)CCCCC1` [GABAPENTIN]: the “effect … on the patient's symptoms” value in experiment [1] is listed as “failed to address the patient's symptoms”.

Take `COc1cc(CNC(=O)CCCC/C=C/C(C)C)ccc1O` [CAPSAICIN]: the “effect … on the patient's symptoms” value in experiment [1] is “failed to address the patient's symptoms”.

Turning to `CC(C)Cc1ccc(C(C)C(=O)O)cc1` (stereo not shown) [Ibuprofen], the “effect of previous medications on pain” value in experiment [4] is given as “did not help”.

Regarding `CC(C)Cc1ccc(C(C)C(=O)O)cc1` (stereo not shown) [MOTRIN, ibuprogen], the “effect of previously taken medications on pain” value in experiment [2] is given as “not as effective as they hoped”.

For `CCN(CC)CC(=O)Nc1c(C)cccc1C` [LIDOCAINE], the “effect … on the patient's symptoms” value in experiment [1] was “failed to address the patient's symptoms”.

Consider `C[C@]12CCC(=O)C=C1CC[C@@H]1[C@@H]2[C@@H](O)C[C@@]2(C)[C@H]1CC[C@]2(O)C(=O)CO` [hydrocortisone], for which the “duration of pain relief after shots” value in experiment [5] worked out at 3 weeks.
